# Laboratory results published in ChEMBL document CHEMBL4385650, “X-ray crystal structures, density functional theory and docking on deacetylase enzyme for antiproliferative activity of hispolon derivatives on HCT116 colon cancer” (Bioorg Med Chem, 2019).
# Test system: HCT-116
# Assay: Antiproliferative activity against human HCT116 cells assessed as reduction in cell viability incubated for 72 hrs by MTT assay
# Format: functional, cell-based
# Conditions: HCT-116, 72 h
row,IC50 [µM],Compound
1,10.5,COc1cc(/C=C/C(=O)CC(=O)/C=C/c2ccc(O)c(OC)c2)ccc1O [CURCUMIN]
2,28.8,COc1cc(/C=C/C(=O)CC(C)=O)cc(OC)c1OC
3,182,COc1cc(CCC(=O)CC(C)=O)ccc1O
4,5.2,CC(=O)CC(=O)/C=C/c1ccc(O)c(O)c1
5,139,COc1cc(OC)c(CCC(=O)CC(C)=O)c(OC)c1
6,36,CC(=O)CC(=O)/C=C/c1ccc(O)cc1
7,8.5,COc1cc(OC)c(/C=C/C(=O)CC(C)=O)c(OC)c1
8,215,COc1ccc(CCC(=O)CC(C)=O)cc1OC
9,24.7,COc1cc(/C=C/C(=O)CC(C)=O)cc(OC)c1O
10,1.4,COc1cc(/C=C/C(=O)CC(C)=O)ccc1O
11,4.7,COc1ccc(/C=C/C(=O)CC(C)=O)cc1OC
12,213,CC(=O)CC(=O)CCc1ccc(O)cc1
13,138,COc1cc(CCC(=O)CC(C)=O)cc(OC)c1OC
